In patent US10160783B2, “Neuroactive 13, 17-substituted steroids as modulators for GABA type-A receptors” (priority 2013, dated 2018):
Read-outs that look alike come from different tables or passages of the source.

Tests used:
Tadpole = Tadpole loss of righting reflex (LRR) and loss of swimming reflex (LSR); format: in vivo; details: ± SEM
Procedure: Table 3 discloses the anesthetic effects of the compounds of the present disclosure. In particular, the anesthetic effect of the compounds of the present disclosure on Loss of Righting Reflex (LRR) and Loss of Swimming Reflex (LSR).
Methods used are known in the art (see Jiang, X., et al.). Error limits are calculated as standard error of the mean (N=10 or more animals at each of five or more different concentrations).

[1] = biological target: picrotoxin binding site on GABAA receptors; experiment: [35S]-TBPS displacement (inhibition of [35S]-TBPS binding); details: non-competitive displacement of [35S]-TBPS; ± SEM, duplicate experiments in triplicate
Procedure: The IC50 values for non-competitive displacers of [^35S]-TBPS from the picrotoxin binding site on GABAA receptors are reported in Table 1.
Results presented are from duplicate experiments performed in triplicate. Error limits are calculated as standard error of the mean. Methods used are known in the art (see Jiang, X., et al., Neurosteroid analogues. 9. Conformationally constrained pregnanes: structure-activity studies of 13,24-cyclo-18,21-dinorcholane analogues of the GABA modulatory and anesthetic steroids (3α,5α)- and […]. J. Med. Chem., 46: 5334-48 (2003)—the contents of which are hereby incorporated by reference in their entirety).

[2] = biological target: T1, rat α1β2γ2L type GABAA receptors expressed in Xenopus laevis oocytes (Rattus norvegicus, UniProt P18508+P62813+P63138, INS375LLRMFSFK); experiment: Potentiation of GABA-mediated chloride currents and direct gating, oocyte electrophysiology; format: cell-based; details: ± SEM, N ≥ 4; for oocyte electrophysiology 0.1 μM: ratio of currents measured in the presence/absence of added compound: 0.1 μM compound; for oocyte electrophysiology 0.1 μM: ratio of currents measured in the presence/absence of added compound / oocyte electrophysiology 1 μM: ratio of currents measured in the presence/absence of added compound / oocyte electrophysiology 10 μM: ratio of currents measured in the presence/absence of added compound: 2 μM GABA control response; for oocyte electrophysiology 1 μM: ratio of currents measured in the presence/absence of added compound: 1 μM compound; for oocyte electrophysiology 10 μM: ratio of currents measured in the presence/absence of added compound: 10 μM compound; for (gating) 10 μM: ratio of compound only current/2 μM GABA current: direct current gated by 10 μM compound in the absence of GABA
T1 construct: expressed in transfected cells; host or cells: Xenopus laevis oocytes
T1 sequence (P62813 28-455, stated change not applied): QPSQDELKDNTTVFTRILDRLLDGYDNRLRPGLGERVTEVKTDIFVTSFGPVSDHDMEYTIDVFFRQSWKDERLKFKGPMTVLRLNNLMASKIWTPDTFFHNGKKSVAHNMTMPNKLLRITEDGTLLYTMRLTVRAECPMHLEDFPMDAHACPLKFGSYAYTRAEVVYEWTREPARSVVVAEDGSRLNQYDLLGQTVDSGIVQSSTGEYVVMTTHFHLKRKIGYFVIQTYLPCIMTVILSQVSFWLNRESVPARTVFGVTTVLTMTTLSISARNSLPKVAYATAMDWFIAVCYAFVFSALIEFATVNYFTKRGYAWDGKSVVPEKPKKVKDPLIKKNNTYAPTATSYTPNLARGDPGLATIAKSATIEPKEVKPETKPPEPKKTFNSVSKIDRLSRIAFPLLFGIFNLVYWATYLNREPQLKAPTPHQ
T1 sequence (P63138 26-474, stated change not applied): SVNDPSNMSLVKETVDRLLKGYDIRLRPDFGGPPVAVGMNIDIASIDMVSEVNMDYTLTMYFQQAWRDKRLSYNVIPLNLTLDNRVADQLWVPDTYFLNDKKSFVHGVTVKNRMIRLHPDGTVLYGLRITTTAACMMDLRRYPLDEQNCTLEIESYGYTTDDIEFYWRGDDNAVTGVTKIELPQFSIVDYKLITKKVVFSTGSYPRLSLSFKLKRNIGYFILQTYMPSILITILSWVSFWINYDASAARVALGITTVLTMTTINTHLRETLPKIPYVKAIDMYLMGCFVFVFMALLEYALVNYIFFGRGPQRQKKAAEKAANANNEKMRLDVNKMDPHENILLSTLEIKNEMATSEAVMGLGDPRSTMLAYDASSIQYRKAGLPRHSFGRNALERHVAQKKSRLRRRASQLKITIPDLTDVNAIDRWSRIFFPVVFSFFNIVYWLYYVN
T1 sequence (P18508 with tags, fused parts or gaps INS375LLRMFSFK): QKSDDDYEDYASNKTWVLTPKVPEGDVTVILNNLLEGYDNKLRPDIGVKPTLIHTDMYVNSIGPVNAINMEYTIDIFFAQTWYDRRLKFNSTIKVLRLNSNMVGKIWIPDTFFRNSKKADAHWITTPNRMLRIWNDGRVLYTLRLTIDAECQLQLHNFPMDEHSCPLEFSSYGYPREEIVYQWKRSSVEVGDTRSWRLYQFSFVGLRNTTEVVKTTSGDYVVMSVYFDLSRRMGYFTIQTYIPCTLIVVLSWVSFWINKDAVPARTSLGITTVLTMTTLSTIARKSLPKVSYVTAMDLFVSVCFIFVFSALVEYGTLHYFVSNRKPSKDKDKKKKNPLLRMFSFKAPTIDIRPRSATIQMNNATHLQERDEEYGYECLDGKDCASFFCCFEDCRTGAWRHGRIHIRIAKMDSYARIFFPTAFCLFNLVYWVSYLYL
Procedure: The compounds of the present disclosure were evaluated for the ability to potentiate chloride currents mediated by 2 μM GABA at rat α1β2γ2L type GABAA receptors expressed in Xenopus laevis oocytes and the results are shown in Table 2.

[3] = loss of righting reflex, read-out: Tadpole LRR EC50
[4] = loss of swimming reflex, read-out: Tadpole LSR EC50

SMILES	melting point [°C]	EC50 (Tadpole; [3]) [nM]	EC50 (Tadpole; [4]) [nM]	IC50 [1] [nM]	oocyte electrophysiology 0.1 μM: ratio of currents measured in the presence/absence of added compound [2]	oocyte electrophysiology 1 μM: ratio of currents measured in the presence/absence of added compound [2]	oocyte electrophysiology 10 μM: ratio of currents measured in the presence/absence of added compound [2]	(gating) 10 μM: ratio of compound only current/2 μM GABA current [2]	Tadpole LSR EC50 (μM) (Tadpole; loss of swimming reflex)
C=C[C@]12CC[C@H]3[C@@H](CC[C@H]4C[C@H](O)CC[C@@]43C)[C@@H]1CC[C@@H]2C(C)=O [ZYC-75]	146 to 147	670 ± 10	2640 ± 10	–	–	–	–	–	–
CC(=O)[C@]12CC[C@H]3[C@@H](CC[C@H]4C[C@H](O)CC[C@@]43C)[C@@H]1CC[C@@H]2[C@@H](C)O [ZYC-72, (3α,5α,20R)-13-Acetyl-18-norpregnane-3,20-diol]	159 to 161	3060	> 10000	978 ± 618	0.80 ± 0.08	1.30 ± 0.11	2.78 ± 0.37	−0.03 ± 0.11	–
CC(=O)[C@]12CC[C@H]3[C@@H](CC[C@H]4C[C@H](O)CC[C@@]43C)[C@@H]1CC[C@@H]2CCl [ZYC-74, 1-[(3α,5α,17β)-17-Chloromethy-3-hydroxy-18-norandrostan-13-yl]ethanone]	161 to 162	3330 ± 1410	5480 ± 200	415 ± 83	1.06 ± 0.04	1.98 ± 0.21	9.38 ± 1.71	0.03 ± 0.01	–
CC(=O)[C@H]1CC[C@H]2[C@@H]3CC[C@H]4C[C@H](O)CC[C@]4(C)[C@H]3CC[C@]12C(C)=O [ZYC-71, (3α,5α)-13-Acetyl-3-hydroxy-18-norpregnan-20-one]	180 to 181	1730 ± 10	5480 ± 150	82 ± 7	1.82 ± 0.03	9.31 ± 0.46	19.44 ± 1.69	0.22 ± 0.01	–
C=C[C@H]1CC[C@H]2[C@@H]3CC[C@H]4C[C@H](O)CC[C@]4(C)[C@H]3CC[C@]12C(C)=O [XJ-99, 1-[(3α,5α)-3-Hydroxy-18-norpregn-20-en-13-yl]ethanone]	178 to 179.5	50	140	43 ± 12	1.73 ± 0.20	3.96 ± 0.99	4.37 ± 1.28	0.07 ± 0.02	–
C=C[C@H]1CC[C@H]2[C@@H]3CC[C@H]4C[C@H](O)[C@@H](OC)C[C@]4(C)[C@H]3CC[C@]12C(C)=O [KK-140, 1-[(2β,3α,5α)-3-Hydroxy-2-Methoxy-18-norpregn-20-en-13-yl]ethanone]	155 to 157	50	300	17 ± 3	5.39 ± 2.76	11.90 ± 1.08	17.29 ± 2.10	0.27 ± 0.06	–
C=C[C@]12CC[C@H]3[C@@H](CC[C@H]4C[C@H](O)CC[C@@]43C)[C@@H]1CC[C@@H]2[C@@H](C)O [ZYC-76, (3α,5α,20R)-13-Ethenyl-18-norpregnan-3,20-diol]	193 to 195	742000 ± 202000	1740 ± 30	497 ± 59	1.00 ± 0.01	1.56 ± 0.13	7.28 ± 1.76	0.04 ± 0.02	–
C=C[C@H]1CC[C@H]2[C@@H]3CC[C@H]4C[C@H](O)CC[C@]4(C)[C@H]3[C@@H](OC)C[C@]12C(C)=O [KK-144, 1-[(3α,5α,11β)-3-Hydroxy-11-methoxy-18-norpregn-20-en-13-yl]ethanone]	127 to 129	180 ± 10	550 ± 10	72 ± 16	1.40 ± 0.11	5.38 ± 0.55	10.59 ± 1.31	0.18 ± 0.02	–
CC(=O)[C@]12CC[C@H]3[C@@H](CC[C@H]4C[C@H](O)CC[C@@]43C)[C@@H]1CC[C@@H]2CO [ZYC-73, 1-[(3α,5α,17β)-3-Hydroxy-17-hydroxymethyl-18-norandrostan-13-yl]ethanone]	166 to 168	> 10000	–	1460	1.07 ± 0.15	1.42 ± 0.16	6.16 ± 0.71	–	None
C=C[C@H]1CC[C@H]2[C@@H]3C[C@@H](OC)[C@H]4C[C@H](O)CC[C@]4(C)[C@H]3CC[C@]12C(C)=O [KK-143, 1-[(3α,5α,6β)-3-Hydroxy-6-methoxy-18-norpregn-20-en-13-yl]ethanone]	158 to 160	610 ± 60	1730 ± 30	270 ± 19	1.23 ± 0.06	2.93 ± 0.30	8.43 ± 0.69	0.07 ± 0.02	–
C=C[C@H]1CC[C@H]2[C@@H]3CC[C@H]4C[C@H](O)CC[C@]4(COC)[C@H]3CC[C@]12C(C)=O [KK-145, 1-[(3α,5α)-3-Hydroxy-19-methoxy-18-norpregn-20-en-13-yl]ethanone]	124 to 126	140 ± 10	550 ± 10	53 ± 4	1.75 ± 0.14	13.74 ± 3.71	35.57 ± 12.85	0.56 ± 0.07	–
CC[C@H]1CC[C@H]2[C@@H]3CC[C@H]4C[C@H](O)CC[C@]4(C)[C@H]3CC[C@]12C(C)=O [XJ-100, 1-[(3α,5α)-3-Hydroxy-18-norpregnan-13-yl]ethanone]	182 to 184	460 ± 160	> 10000	276 ± 130	1.33 ± 0.20	5.01 ± 0.89	8.41 ± 0.66	−0.06 ± 0.06	–
